Patent US12441768B2, “Compositions and methods for treating endometriosis” (EndoMet Biosciences, Inc., priority 2018, dated 2025)
Where a SMILES comes first, the peptide text is derived from it.

Assays:
[1] = % Viability non-Wnt responsive cells
[2] = biological target: Wnt-responsive promoter (TCF/LEF); test: Wnt-dependent luciferase reporter assay; assay type: cell-based, murine
Summary of the method: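 EC50 (uM) derived from inhibition of luminescence in Wnt3a-stimulated murine 3T3 cells expressing luciferase under a TCF/LEF promoter, with peptides added across a concentration range and vehicle as control.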

β-catenin = biological target: T1, β-catenin (Homo sapiens, UniProt P35222); test: KD50 measurement using competitive fluorescence polarization (FP) with labelled TCF4; assay type: binding; details: fluorescence polarization, β-catenin; for Kd: read-out: β-Cat FP KD
T1 sequence (P35222 1-781): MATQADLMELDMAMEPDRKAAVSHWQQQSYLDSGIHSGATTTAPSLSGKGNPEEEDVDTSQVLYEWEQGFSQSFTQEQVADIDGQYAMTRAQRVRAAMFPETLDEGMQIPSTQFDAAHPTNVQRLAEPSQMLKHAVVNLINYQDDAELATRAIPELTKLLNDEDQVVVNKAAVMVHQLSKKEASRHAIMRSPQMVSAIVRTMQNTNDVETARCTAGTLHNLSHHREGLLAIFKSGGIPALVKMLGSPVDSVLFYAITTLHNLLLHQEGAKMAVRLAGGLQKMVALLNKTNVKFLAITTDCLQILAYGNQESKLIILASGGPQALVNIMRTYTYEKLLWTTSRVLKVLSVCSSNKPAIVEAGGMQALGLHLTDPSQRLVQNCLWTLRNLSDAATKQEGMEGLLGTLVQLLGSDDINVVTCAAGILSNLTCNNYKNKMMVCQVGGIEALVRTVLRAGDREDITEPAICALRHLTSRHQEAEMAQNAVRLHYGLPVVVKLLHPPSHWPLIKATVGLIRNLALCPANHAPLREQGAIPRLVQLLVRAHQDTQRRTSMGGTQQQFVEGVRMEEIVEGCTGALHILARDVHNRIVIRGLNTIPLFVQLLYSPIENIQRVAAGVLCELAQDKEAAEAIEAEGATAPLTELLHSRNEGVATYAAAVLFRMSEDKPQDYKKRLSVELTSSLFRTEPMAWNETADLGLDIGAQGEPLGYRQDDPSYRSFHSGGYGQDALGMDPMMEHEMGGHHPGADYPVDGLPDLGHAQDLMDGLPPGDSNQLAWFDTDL
Summary of the method: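 Each compound competes against labelled TCF4 (5 nM) for 100 nM β-catenin at room temperature, tested over 10 nM to 30 uM. Signal: polarization at 470/520 nm excitation/emission. Three repeat experiments were performed.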

| SMILES | EC50 [2] [nM] | β-Cat FP Hill slope (β-catenin) | Kd (β-catenin) [nM] | viability [1] [%] |
| --- | --- | --- | --- | --- |
| CC[C@H](C)[C@H](NC(=O)[C@@H]1CCC(=O)NCCCC[C@H](N)C(=O)N[C@@H](Cc2c[nH]c3ccccc23)C(=O)N[C@@H](Cc2ccccc2)C(=O)N1)C(=O)N[C@@H](CO)C(=O)N[C@@H](Cc1ccccc1)C(=O)N[C@@H](Cc1c[nH]c2ccccc12)C(=O)NCC(=O)O [compound 208] (HELM PEPTIDE1{K.W.F.E.I.S.F.W.G}$PEPTIDE1,PEPTIDE1,1:R3-4:R3$$$V2.0) | 7500 to 15000 | 0.69 | 1000 to 10000 | 93.4 |
| CC[C@H](C)[C@H](NC(=O)[C@H](CC(C)C)NC(=O)[C@@H](NC(=O)[C@H](Cc1c[nH]c2ccccc12)NC(=O)[C@H](CCSC)NC(C)=O)C1CCCCC1)C(=O)N[C@@H](CO)C(=O)N[C@@H](Cc1ccccc1)C(=O)N[C@@H](Cc1c[nH]c2ccccc12)C(=O)NCC(=O)O [compound 217] (HELM PEPTIDE1{[ac].M.W.[O=C([C@@H](N[*:1])C1CCCCC1)[*:2]].L.I.S.F.W.G}$$$$V2.0) | < 7500 | 1.47 | < 400 | 87.9 |
| CC[C@H](C)[C@H](NC(=O)[C@H](CC(C)C)NC(=O)[C@H](CC(C)C)NC(=O)[C@H](Cc1c[nH]c2ccccc12)NC(=O)[C@H](CCSC)NC(C)=O)C(=O)N[C@@H](CO)C(=O)N[C@@H](Cc1ccccc1)C(=O)N[C@@H](Cc1c[nH]c2ccccc12)C(=O)NCC(=O)O [compound 218] (Ac-MWLLISFWG-OH) | < 7500 | 1.85 | < 400 | 90.8 |
| CC[C@H](C)[C@H](NC(=O)[C@H](CC(C)C)NC(=O)[C@H](Cc1ccccc1)NC(=O)[C@H](Cc1c[nH]c2ccccc12)NC(=O)[C@H](CCSC)NC(C)=O)C(=O)N[C@@H](CO)C(=O)N[C@@H](Cc1ccccc1)C(=O)N[C@@H](Cc1c[nH]c2ccccc12)C(=O)NCC(=O)O [compound 219] (Ac-MWFLISFWG-OH) | < 7500 | 0.86 | 400 to 1000 | 90.6 |
| CC[C@H](C)[C@H](NC(=O)[C@H](CC(C)C)NC(=O)[C@H](Cc1ccccc1)NC(=O)[C@H](Cc1c[nH]c2ccccc12)NC(C)=O)C(=O)N[C@@H](CO)C(=O)N[C@@H](Cc1ccccc1)C(=O)N[C@@H](Cc1c[nH]c2ccccc12)C(=O)NCC(=O)O [compound 220] (Ac-WFLISFWG-OH) | < 7500 | 2.99 | 400 to 1000 | 93.2 |
| CC[C@H](C)[C@H](NC(=O)[C@H](CC(C)C)NC(=O)[C@@H](NC(=O)[C@H](Cc1c[nH]c2ccccc12)NC(=O)[C@H](CCSC)NC(C)=O)[C@@H](C)CC)C(=O)N[C@@H](CO)C(=O)N[C@@H](Cc1ccccc1)C(=O)N[C@@H](Cc1c[nH]c2ccccc12)C(=O)NCC(=O)OC [compound 222] (HELM PEPTIDE1{[ac].M.W.I.L.I.S.F.W.G.[CO[*:1]]}$$$$V2.0) | 7500 to 15000 | 1.56 | 1000 to 10000 | 98.2 |
| CC[C@H](C)[C@H](NC(=O)[C@H](CC(C)C)NC(=O)[C@@H](NC(=O)[C@H](Cc1c[nH]c2ccccc12)NC(=O)[C@H](CCSC)NCc1ccccc1)[C@@H](C)CC)C(=O)N[C@@H](CO)C(=O)N[C@@H](Cc1ccccc1)C(=O)N[C@@H](Cc1c[nH]c2ccccc12)C(=O)NCC(=O)O [compound 223] (HELM PEPTIDE1{[CSCC[C@H](NCc1ccccc1)C(=O)[*:2]].W.I.L.I.S.F.W.G}$$$$V2.0) | < 7500 | 0.7 | – | 101 |
| CC[C@H](C)[C@H](NC(=O)[C@H](CC(C)C)NC(=O)[C@@H](NC(=O)[C@H](Cc1c[nH]c2ccccc12)NC(=O)[C@H](CCSC)NC(=O)C(C)(C)C)[C@@H](C)CC)C(=O)N[C@@H](CO)C(=O)N[C@@H](Cc1ccccc1)C(=O)N[C@@H](Cc1c[nH]c2ccccc12)C(=O)NCC(=O)O [compound 225] (HELM PEPTIDE1{[CC(C)(C)C(=O)[*:2]].M.W.I.L.I.S.F.W.G}$$$$V2.0) | < 7500 | 0.7 | 400 to 1000 | 101 |

Second part, led by results:

| EC50 [2] [nM] | β-Cat FP Hill slope (β-catenin) | Kd (β-catenin) [nM] | SMILES | viability [1] [%] |
| --- | --- | --- | --- | --- |
| < 7500 | 0.7 | 400 to 1000 | CC[C@H](C)[C@@H]1NC(=O)[C@H](CC(C)C)NC(=O)[C@H](Cc2ccccc2)NC(=O)[C@H](Cc2c[nH]c3ccccc23)NC(=O)[C@@H](N)CCCCNC(=O)CNC(=O)C[C@@H](C(=O)O)NC(=O)[C@H](Cc2c[nH]c3ccccc23)NC(=O)[C@H](C)NC(=O)[C@H](CS)NC1=O [compound 207] (HELM PEPTIDE1{K.W.F.L.I.C.A.W.[O=C(O)[C@H](CC(=O)[*:2])N[*:1]].G}$PEPTIDE1,PEPTIDE1,1:R3-10:R2$$$V2.0) | 107 |
| < 7500 | 0.93 | 400 to 1000 | CC[C@H](C)[C@H](NC(=O)[C@H](CC(C)C)NC(=O)[C@H](Cc1ccccc1)NC(=O)[C@H](Cc1c[nH]c2ccccc12)NC(=O)[C@H](C)N)C(=O)N[C@@H](CO)C(=O)N[C@@H](Cc1ccccc1)C(=O)N[C@@H](Cc1c[nH]c2ccccc12)C(=O)NCC(=O)O [compound 209] (H-AWFLISFWG-OH) | 91 |
| < 7500 | 0.6 | 1000 to 10000 | CC[C@H](C)[C@H](NC(=O)[C@H](CC(C)C)NC(=O)[C@H](Cc1ccccc1)NC(=O)[C@H](C)NC(=O)[C@@H](N)CCSC)C(=O)N[C@@H](CO)C(=O)N[C@@H](Cc1ccccc1)C(=O)N[C@@H](Cc1c[nH]c2ccccc12)C(=O)NCC(=O)O [compound 210] (H-MAFLISFWG-OH) | 96.4 |
| < 7500 | 0.67 | 1000 to 10000 | CC[C@H](C)[C@H](NC(=O)[C@H](CC(C)C)NC(=O)[C@H](Cc1ccccc1)NC(=O)[C@H](Cc1c[nH]c2ccccc12)NC(=O)[C@@H](N)CCSC)C(=O)N[C@@H](CS)C(=O)N[C@@H](C)C(=O)N[C@@H](Cc1c[nH]c2ccccc12)C(=O)NCC(=O)O [compound 211] (H-MWFLICAWG-OH) | 93.9 |
| < 7500 | 1.05 | 400 to 1000 | CC[C@H](C)[C@H](NC(=O)[C@H](CC(C)C)NC(=O)[C@H](Cc1ccccc1)NC(=O)[C@H](Cc1c[nH]c2ccccc12)NC(=O)[C@@H](N)CCSC)C(=O)N[C@@H](C)C(=O)N[C@@H](C)C(=O)N[C@@H](Cc1c[nH]c2ccccc12)C(=O)NCC(=O)O [compound 212] (H-MWFLIAAWG-OH) | 99.3 |
| < 7500 | 0.7 | 400 to 1000 | CC[C@H](C)[C@H](NC(=O)[C@H](CC(C)C)NC(=O)[C@H](Cc1ccccc1)NC(=O)[C@H](Cc1c[nH]c2ccccc12)NC(=O)[C@@H](N)CCSC)C(=O)N[C@@H](CSC)C(=O)N[C@@H](Cc1ccccc1)C(=O)N[C@@H](Cc1c[nH]c2ccccc12)C(=O)NCC(=O)O [compound 214] (H-MWFLIC(Me)FWG-OH) | 102 |
| < 7500 | 1.35 | 400 to 1000 | CC[C@H](C)[C@H](NC(=O)[C@H](CC(C)C)NC(=O)[C@H](CC1CCCCC1)NC(=O)[C@H](Cc1c[nH]c2ccccc12)NC(=O)[C@H](CCSC)NC(C)=O)C(=O)N[C@@H](CO)C(=O)N[C@@H](Cc1ccccc1)C(=O)N[C@@H](Cc1c[nH]c2ccccc12)C(=O)NCC(=O)O [compound 216] (HELM PEPTIDE1{[ac].M.W.[Cha].L.I.S.F.W.G}$$$$V2.0) | 100 |
